# Assay results from publication PMC10764104, “Discovery of Molecular Glue Degraders via Isogenic Morphological Profiling” (ACS Chemical Biology, 2023).
# Legend:
# [1] = CellTiter-Glo cytotoxicity of selected compounds (manual, 72 h); type: cell-based, human; details: human, up to 10 μM
# Method: Assessment of gene expression and essentiality in RKO WT
# Fluorescence Polarization‐based competition assay
# EC50 values were calculated with GraphPad Prism […]
# the FP value of free tracer. […]
# instructions. […] For the screening of the whole SuFEx
# Data visualization was done with seaborn
# (https://seaborn.pydata.org, version 0.12.2). […]
# compounds. (F) Analysis of the cytotoxicity of compounds with treatment‐centric features related to FL2‐ […]
# Synthesis and in Vitro Evaluation of Diverse Heterocyclic Diphenolic Compounds as Inhibitors of DYRK1A.
# (7) Zhang, J.‐H.; Chung, T. D. Y.; Oldenburg, K. R. A Simple Statistical Parameter for Use in Evaluation and Validation of High Throughput Screening Assays. SLAS Discov.
# GSPT2 = target: T1, GSPT2 (Homo sapiens, UniProt Q8IYD1+Q96SW2); experiment: Western blot analysis of GSPT1 and GSPT2 degradation in RKO WT or CRBN KO cells; type: cell-based
# T1 construct: endogenous in cells; host or cells: RKO WT or RKO CRBN KO
# T1 sequence (Q8IYD1 whole entry): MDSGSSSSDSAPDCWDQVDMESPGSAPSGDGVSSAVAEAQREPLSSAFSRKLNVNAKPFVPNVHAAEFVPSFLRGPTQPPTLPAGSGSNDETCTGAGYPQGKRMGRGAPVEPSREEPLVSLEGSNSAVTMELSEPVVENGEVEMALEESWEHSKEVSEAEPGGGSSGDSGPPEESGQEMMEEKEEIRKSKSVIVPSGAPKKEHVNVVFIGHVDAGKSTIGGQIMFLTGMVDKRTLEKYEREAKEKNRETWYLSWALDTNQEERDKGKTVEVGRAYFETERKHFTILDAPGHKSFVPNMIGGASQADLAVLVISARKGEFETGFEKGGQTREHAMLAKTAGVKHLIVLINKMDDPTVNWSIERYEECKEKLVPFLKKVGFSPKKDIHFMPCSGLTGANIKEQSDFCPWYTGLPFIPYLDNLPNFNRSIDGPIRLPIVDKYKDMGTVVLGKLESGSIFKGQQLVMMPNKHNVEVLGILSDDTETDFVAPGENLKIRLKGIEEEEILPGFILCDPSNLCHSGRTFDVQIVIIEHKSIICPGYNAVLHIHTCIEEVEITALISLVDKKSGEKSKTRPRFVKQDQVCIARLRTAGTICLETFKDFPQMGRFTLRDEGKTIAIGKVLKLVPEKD
# T1 sequence (Q96SW2 whole entry): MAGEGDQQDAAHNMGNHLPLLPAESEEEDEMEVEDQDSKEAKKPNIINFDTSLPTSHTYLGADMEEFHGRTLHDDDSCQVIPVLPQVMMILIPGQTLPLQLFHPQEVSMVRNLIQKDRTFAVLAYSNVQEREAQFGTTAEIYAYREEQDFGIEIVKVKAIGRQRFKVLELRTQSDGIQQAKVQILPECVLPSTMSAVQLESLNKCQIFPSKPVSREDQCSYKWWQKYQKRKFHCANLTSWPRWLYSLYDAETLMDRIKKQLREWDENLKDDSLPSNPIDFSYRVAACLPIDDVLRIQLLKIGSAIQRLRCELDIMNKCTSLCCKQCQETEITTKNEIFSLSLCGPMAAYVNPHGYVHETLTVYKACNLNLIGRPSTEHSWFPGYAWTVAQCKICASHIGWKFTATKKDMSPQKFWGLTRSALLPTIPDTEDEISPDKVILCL
# T1 sequence (Q16531 2-1140 partner limits assumed): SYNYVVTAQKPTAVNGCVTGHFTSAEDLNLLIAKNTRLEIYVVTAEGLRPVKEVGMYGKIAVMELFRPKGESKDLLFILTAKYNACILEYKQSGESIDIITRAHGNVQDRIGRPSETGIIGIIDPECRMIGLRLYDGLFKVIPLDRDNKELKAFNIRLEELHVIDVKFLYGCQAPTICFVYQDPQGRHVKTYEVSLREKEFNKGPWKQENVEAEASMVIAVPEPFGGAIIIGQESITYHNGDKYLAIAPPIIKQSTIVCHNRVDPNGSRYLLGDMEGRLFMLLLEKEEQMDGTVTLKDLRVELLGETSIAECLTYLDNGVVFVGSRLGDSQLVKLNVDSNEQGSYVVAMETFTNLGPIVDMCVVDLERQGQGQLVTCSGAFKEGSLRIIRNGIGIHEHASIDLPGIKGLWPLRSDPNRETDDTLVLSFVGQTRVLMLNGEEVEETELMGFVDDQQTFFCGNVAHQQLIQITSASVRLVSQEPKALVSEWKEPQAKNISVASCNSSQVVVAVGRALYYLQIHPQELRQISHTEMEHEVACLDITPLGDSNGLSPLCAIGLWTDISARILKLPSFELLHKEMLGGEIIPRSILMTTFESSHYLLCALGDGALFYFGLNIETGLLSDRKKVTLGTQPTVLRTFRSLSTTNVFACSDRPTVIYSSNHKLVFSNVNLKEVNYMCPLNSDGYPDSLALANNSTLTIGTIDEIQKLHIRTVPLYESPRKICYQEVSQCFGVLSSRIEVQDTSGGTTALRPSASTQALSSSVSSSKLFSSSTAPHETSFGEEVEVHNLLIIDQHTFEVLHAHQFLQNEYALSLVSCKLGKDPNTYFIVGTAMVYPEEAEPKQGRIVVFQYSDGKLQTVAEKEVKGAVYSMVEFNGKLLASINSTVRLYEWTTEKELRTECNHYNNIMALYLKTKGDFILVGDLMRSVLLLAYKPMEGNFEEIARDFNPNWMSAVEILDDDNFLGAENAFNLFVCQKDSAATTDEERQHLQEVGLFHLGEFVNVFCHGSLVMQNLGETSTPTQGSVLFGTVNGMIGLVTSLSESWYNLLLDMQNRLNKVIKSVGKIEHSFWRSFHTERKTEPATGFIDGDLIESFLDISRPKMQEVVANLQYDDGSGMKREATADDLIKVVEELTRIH
# Method: (A) Structure of FL2-14 comprising fluorosulfate scaffold FL2 (black) and tail group modification 14 (blue). (B) DMSO-normalized quantitative proteomics after 16 h of treatment with FL2-14 (10 μM) in RKO WT (n = 2). […] (C) Structural alignment of AlphaFold models of GSPT1 (AF-P15170-F1-model_v4 in gray) and GSPT2 (AF-Q8IYD1-F1-model_v4 in blue). (D) Validation of GSPT2 degradation by FL2-14. […] (E) Dose–response of FL2-14 in RKO and HEK293T cells. Cells were treated with the FL2-14 (0 to 10 μM) for 16 h. (F) Degradation of GSPT2^WT or GSPT2^G566N. […]
# Analysis of targeted protein degradation of GSPT1 and GSPT2 via western blot For degradation assays 800 000 RKO WT or CRBN KO cells were seeded 1 day prior to the treatment in 6 well plates.
# Then, cells were treated with 10 µM of the compounds for 16 hours if not otherwise stated. Cells were harvested, lysed for 30 min at 37°C in lysis buffer (1x PBS, 1% SDS, 2 mM MgCl2, 1x Halt Protease inhibitor cocktail, 50 Units Benzonase) and cleared for 30 min at 18 000 x g at 4°C. Protein concentration was determined with the Pierce 660 nm Protein Assay using the Ionic Detergent Compatibility Reagent (Thermo Scientific). 10 µg total proteome were subjected to western blot analysis by adding 4x Bolt™ LDS Sample Buffer (Thermo Scientific). Samples were boiled at 95°C for 5 min and subjected to gel electrophoresis with Bolt™ 4‐12% Bis‐Tris Plus Gels (Thermo Scientific) with Bolt™ MES SDS Running Buffer (Thermo Scientific). Membranes were blocked with 5% fat‐free milk in TBS‐T (20 mM Tris, 150 mM NaCl, 0.1% Tween, pH 7.6) for 1 h at room temperature and washed subsequently 3x 5 min with TBS‐
# T. Afterwards, they were incubated for 1 h at room temperature with either GSPT1 antibody (Abcam ab49878, rabbit, […]
# rabbit, 1:10 000), CRBN (Cell Signaling Technologies, CST71810S, rabbit, 1:1000), or GAPDH (SantaCruz sc‐47724, mouse, 1:1 000). Followed by washing 3x 5 min with TBS‐T and incubation for 1 h at room temperature with either Goat ANTI‐RABBIT IgG StarBright™ Blue 700 (Bio‐Rad, #12004162, 1:10 000) or Goat anti‐Mouse IgG (H+L) Cross‐ Adsorbed Secondary Antibody, DyLight™ 800 (Bio‐Rad, STAR117D800GA, 1:10 000) fluorophore‐conjugated
compound,measurement,setting,value
CN(Cc1ncc(C2CC2)o1)S(=O)(=O)Oc1ccc(Nc2ccc3c(c2)C(=O)N(C2CCC(=O)NC2=O)C3=O)cc1 (stereo not drawn) [FL2-14],EC50 at 72 h,[1]; HEK293T cells,> 10 µM
same,EC50 at 72 h,[1]; RKO WT cells,> 10 µM
same,treatment time at which GSPT2 degradation is apparent,"GSPT2; 10 µM, time-course in RKO and HEK293T cells",5 h
same,GSPT2 degradation in RKO CRBN KO cells,"GSPT2; RKO CRBN KO, 10 μM, 16 h",completely abrogated
same,degradation of GSPT2 versus GSPT1 (Western blot),"GSPT2; RKO WT, 10 μM, 16 h",preferentially degraded GSPT2 over GSPT1
same,concentration range of GSPT2 degradation (dose-response),"GSPT2; RKO, 0 to 10 μM, 16 h",submicromolar range
